According to patent US20250064057A1, “HARMFUL ALGAL BLOOM MITIGATION” (priority 2023, published 2025):

Columns and labels:
[1] = system: Karenia brevis; experiment: K. brevis cell abundance reduction (% R relative to control) in laboratory beakers/aquaria; assay type: cell-based; details: for mean % R in K. brevis cell abundance: beginning at 4 h
[2] = system: K. brevis; details: other studies; cited from earlier work

SMILES | mean % R in K. brevis cell abundance ([1]; 30 mg/L curcumin) | mean % R in K. brevis cell abundance ([1]; 40 mg/L curcumin) | reduction in K. brevis (best mitigation results) ([1]; 20-40 mg/L curcumin, T2-T6) | minimum concentration of curcumin for a reduction in K. brevis ([1]; laboratory studies) | effect on K. brevis cells [2]
COc1cc(/C=C/C(=O)CC(=O)/C=C/c2ccc(O)c(OC)c2)ccc1O [curcumin, (1E,6E)-1,7-Bis (4 (hydroxy-3-methoxyphenyl)-1,6-heptadiene-3,5-dione)] | > 90% | > 90% | 60-100% | 5 mg/L | –
CCCCOC(=O)c1ccccc1C(=O)OCCCC [dibutyl phthalate] | – | – | – | – | inhibit cell growth, decrease cell abundance, reduce chlorophyll a, and cause oxidative stress
